From patent US12023387B2, “NIR-II emissive luminogens” (THE HONG KONG UNIVERSTIY OF SCIENCE AND TECHNOLOGY, priority 2018, dated 2024)

Key:
[1] = UV-vis absorption spectrum in THF solution; format: physicochemical; conditions: THE (THF) solution, 10 μM
[2] = AIE property: photoluminescence in THF/water mixtures with varying water fraction; format: physicochemical
Experimental: FIG. 4 depicts (A) an image of TSPCI powder in daylight; (B) the UV-vis absorption spectrum of TSPCI; (C) the photoluminescence (PL) spectra of TSPCI in THF and THF/water mixtures with different water fractions (fw); and (D) the plot of relative PL intensities at 950 nm versus the fw (concentration: 10 μM; excitation wavelength: 808 nm).
The AIE property of TSPCI was investigated by varying the water fractions (fw) in tetrahydrofuran (THF)/water mixtures (FIG. 4C). […] The strongest emission intensity at ˜950 nm reached its maximum value at 90 vol % water content, which was ˜35-fold higher than that in the pure THF due to the restriction of intramolecular rotation ([…]).

nude mouse = assay: In vivo dynamic NIR-II fluorescence imaging after intravenous injection; conditions: i.v. injection of TSPCI solution in water, images 1-5 s after injection, 808 nm excitation, 1000 nm long-pass filter
Experimental: NIR-I fluorescence imaging was performed using the Maestro in vivo imaging system (CRI, Inc.). To acquire fluorescence of an NIR-I AIEgen (TTD), a 605 nm (+25 nm) bandpass filter and a 645 nm longpass filter were selected as the excitation filter and the emission filter, respectively. NIR-II imaging was performed using the home-built NIR-II in vivo imaging system. The excitation light was provided by an 808 nm diode laser. The emitted light from the TSPCI was filtered through a 1000 nm long-pass filter, which was coupled with a two-dimensional InGaAs array camera (with spectral response range of 900-1700 nm, Photonic Science) for NIR-II fluorescence signal collection. The excitation power density at the imaging plane was 6.4 mW/cm^2, much lower than the safe exposure limit of 330 mW/cm^2 at 808 nm determined by the International Commission on Nonionizing Radiation Protection. […]
TSPCI was added to water under sonication to provide a TSPCI solution. […] FIG. 7A depicts an NIR-II fluorescence image of the nude mouse before intravenous injection of TSPCI solution. FIG. 7B depicts an NIR-II fluorescence image of the nude mouse one second after injection of TSPCI solution. FIG. 7C depicts an NIR-II fluorescence image of the nude mouse two seconds after injection of TSPCI solution. FIG. 7D depicts an NIR-II fluorescence image of the nude mouse three seconds after injection of TSPCI solution. […]

maximal absorption wavelength [1]: 682 nm
wavelength of strongest emission intensity ([2]; THF/water mixtures, excitation 808 nm): ~950 nm
emission spectrum range in aggregate state ([2]; aggregate state, bright emission, NIR-II): 1000-1700 nm
emission intensity enhancement versus pure THF ([2]; at ~950 nm, 90 vol % water content in THF/water, 10 μM, excitation 808 nm): ~35 fold
emission in pure THF solution ([2]; pure THF (fw=0)): no emission was observed
SMILES: N#CC(C#N)=C1C(=C2C=C(/C=C/c3ccc(N(c4ccccc4)c4ccccc4)cc3)OC(/C=C/c3ccc(N(c4ccccc4)c4ccccc4)cc3)=C2)C(=C(C#N)C#N)c2ccccc21 [TSPCI]
in vivo NIR-II imaging performance (nude mouse): high contrast and penetration depth
